In patent publication US20130310256A1, “HERBICIDAL COMPOSITIONS COMPRISING 4-AMINO-3-CHLORO-5-FLUORO-6-(4-CHLORO-2-FLUORO-3-METHOXYPHENYL) PYRIDINE-2-CARBOXYLIC ACID OR A DERIVATIVE THEREOF AND VLCFA AND LIPID SYNTHESIS INHIBITING HERBICIDES” (DOW AGROSCIENCES LLC, priority 2008, published 2013):

How the values were obtained:
ISCRU = test: Example I: postemergence foliar-applied weed control, greenhouse; type: in vivo, Ischaemum rugosum Salisb. (saramollagrass); conditions: 21 DAA
Description: Seeds or nutlets of the desired test plant species were planted in a soil matrix prepared by mixing a loam or sandy loam soil (e.g., 28.6 percent silt, 18.8 percent clay, and 52.6 percent sand, with a pH of about 5.8 and an organic matter content of about 1.8 percent) and calcareous grit in an 80 to 20 ratio. The soil matrix was contained in plastic pots with a volume of 1 quart and a surface area of 83.6 square centimeters (cm^2). When required to ensure good germination and healthy plants, a fungicide treatment and/or other chemical or physical treatment was applied. The plants were grown for 8-22 days in a greenhouse with an approximate 14 hr photoperiod which was maintained at about 29° C. during the day and 26° C. during the night. Nutrients (Peters Excel® 15-5-15 5-Ca 2-Mg and iron chelate) were applied in the irrigation solution as needed and water was added on a regular basis. Supplemental lighting was provided with overhead metal halide 1000-Watt lamps as necessary. The plants were employed for testing when they reached the first through fourth true leaf stage.
(§1) Treatments consisted of the acid or esters of 4-amino-3-chloro-5-fluoro-6-(4-chloro-2-fluoro-3-methoxy-phenyl)pyridine-2-carboxylic acid (Compound A), each formulated as an SC (suspension concentrate), and various herbicidal components alone and in combination. Forms of compound A were applied on an acid equivalent basis.
Other herbicidal components were applied on an active ingredient basis and included very long chain fatty acid (VLCFA) synthesis-inhibiting and fatty acid/lipid synthesis-inhibiting herbicides acetochlor (technical grade material), acetochlor+dichlormid formulated as Topnotch®, pretilachlor (technical grade material), butachlor formulated as Butachlor EC, fentrazamide formulated as Fentrazamide EC, thiobencarb formulated as Bolero® 8EC, cafenstrole formulated as Himeadow® WP or Lapost® Flowable, benfuresate formulated as Full Shot®, dimethenamid-P formulated as Outlook®, indanofan (technical grade material), flufenacet formulated as Define® DF, mefenacet (technical grade material), S-metolachlor formulated as Dual® II Magnum, pethoxamid formulated as Successor® 600, and pyroxasulfone (technical grade material).
(§2) Treatment requirements were calculated based upon the rates being tested, the concentration of active ingredient or acid equivalent in the formulation, and a 12 mL application volume at a rate of 187 L/ha.
For treatments comprised of formulated compounds, measured amounts of compounds were placed individually in 25 mL glass vials and diluted in a volume of 1.25% (v/v) Agri-Dex® crop oil concentrated to obtain 12× stock solutions. […]

IPOHE = test: Example IV: pre-emergence soil-applied weed control, greenhouse; type: in vivo, Ipomoea hederacea Jacq. (ivyleaf morningglory)
Description: (§3) Seeds or nutlets of the desired test plant species were planted in a soil matrix prepared by mixing a loam soil (32 percent silt, 23 percent clay, and 45 percent sand, with a pH of about 6.5 and an organic matter content of about 1.9 percent) and calcareous grit in an 80 to 20 ratio. The soil matrix was contained in plastic pots with a volume of 1 quart and a surface area of 83.6 square centimeters (cm^2).
as §1, with “benzyl ester” for “acid or esters”, “(compound A)” for “(Compound A), each”, “concentrate)” for “concentrate),”
(§4) Other herbicidal components were applied on an active ingredient basis and included very long chain fatty acid (VLCFA) synthesis-inhibiting and fatty acid/lipid synthesis-inhibiting herbicides alachlor (technical grade material), dimethenamid-P formulated as Outlook®, and S-metolachlor formulated as Dual® II Magnum.
as §2
(§5) For treatments comprised of formulated compounds, measured amounts of compounds were placed individually in 25 mL glass vials and diluted in a volume of 1.25% (v/v) Agri-Dex® crop oil concentrate (COC) to obtain 12× stock solutions. […] Application solutions were prepared by adding an appropriate amount of each stock solution (e.g., 1 mL) and diluted to the appropriate final concentrations with the addition of 10 mL of an aqueous mixture of 1.25% (v/v) COC so that the final spray solutions contained 1.25% (v/v) COC.
(§6) For treatments comprised of technical compounds, weighed amounts can be placed individually in 25 mL glass vials and dissolved in a volume of 97:3 (v/v) acetone/DMSO to obtain 12× stock solutions. […] Application solutions can be prepared by adding an appropriate amount of each stock solution (e.g., 1 mL) and diluted to the appropriate final concentrations with the addition of 10 mL of an aqueous mixture of 1.5% (v/v) COC so that the final spray solutions contain 1.25% (v/v) COC. When technical materials are used, the concentrated stock solutions can be added to the spray solutions so that the final acetone and DMSO concentrations of the application solutions are 16.2% and 0.5%, respectively.
For treatments comprised of formulated and technical compounds, weighed amounts of the technical materials were placed individually in 25 mL glass vials and dissolved in a volume of 97:3 (v/v) acetone/DMSO to obtain 12× stock solutions, and measured amounts of the formulated compounds were placed individually in 25 mL glass vials and diluted in a volume of 1.5% (v/v) COC or water to obtain 12× stock solutions. […] Application solutions were prepared by adding an appropriate amount of each stock solution (e.g., 1 mL) and diluted to the appropriate final concentrations with the addition of an appropriate amount of an aqueous mixture of 1.5% (v/v) COC so that the final spray solutions contained 1.25% (v/v) COC. As required, additional water and/or 97:3 (v/v) acetone/DMSO was added to individual application solutions so that the final acetone and DMSO concentrations of the application solutions being compared were 8.1% and 0.25%, respectively.
All stock solutions and applications solutions were visually inspected for compound compatibility prior to application. Spray solutions were applied to the soil with an overhead Mandel track sprayer equipped with a 8002E nozzles calibrated to deliver 187 L/ha over an application area of 0.503 m^2 at a spray height of 18 inches (46 cm) above average pot height. Control pots were sprayed in the same manner with the solvent blank.
The treated and control pots were placed in a greenhouse and top watered as needed. […]

XANST = test: as above; type: in vivo, Xanthium strumarium L. (common cocklebur); conditions: 32 gae/ha, 29 DAA
Description: as §3
as §1, with “benzyl ester” for “acid or esters”, “(compound A)” for “(Compound A), each”, “concentrate)” for “concentrate),”
as §4, §2, §5
as §6, with “When technical materials are used, the concentrated stock solutions can be added to the spray solutions so that the final acetone and DMSO concentrations of the application solutions are 16.2% and 0.5%, respectively.” left out
For treatments comprised of formulated and technical compounds, weighed amounts of the technical materials were placed individually in 25 mL glass vials and dissolved in a volume of 97:3 (v/v) acetone/DMSO to obtain 12× stock solutions, and measured amounts of the formulated compounds were placed individually in 25 mL glass vials and diluted in a volume of 1.5% (v/v) COC or water to obtain 12× stock solutions. […]

## COc1c(Cl)ccc(-c2nc(C(=O)OCc3ccccc3)c(Cl)c(N)c2F)c1F [Compound A Benzyl Ester, benzyl ester of 4-amino-3-chloro-5-fluoro-6-(4-chloro-2-fluoro-3-methoxy-phenyl)pyridine-2-carboxylic acid]
ISCRU; 8 gae/ha
  Visual Weed Control Obs: 20%
ISCRU; 16 gae/ha
  Visual Weed Control Obs: 0%
IPOHE; 16 gae/ha, 28 DAA
  Visual Weed Control IPOHE Obs: 13%
IPOHE; 32 gae/ha, 27 DAA
  Visual Weed Control IPOHE Obs: 28%
IPOHE; 32 gae/ha, 28 DAA
  Visual Weed Control IPOHE Obs: 23%
XANST
  Visual Weed Control XANST Obs: 5%
